Data reported in the supplement of paper PMC13380429.

Tests used:
Settings in all cases: 72 h
U2OS [1] = test: drug sensitivity score (DSS) for viability; higher = more toxic; extreme values may be limits of the assay
Vero E6 [2] = test: as above
Caco-2 [3] = test: as above
Calu-3 [4] = test: as above
HepG2 [5] = test: as above
U2OS [6] = test: cell viability relative to DMSO; higher = less toxic
Vero E6 [7] = test: as above
Caco-2 [8] = test: as above
Calu-3 [9] = test: as above
HepG2 [10] = test: as above
U2OS [11] = test: relative viability EC50 (midpoint between 100% and the lowest measured viability); higher = less toxic
Vero E6 [12] = test: as above
Caco-2 [13] = test: as above
Calu-3 [14] = test: as above
HepG2 [15] = test: as above

SMILES	drug sensitivity score (U2OS [1])	drug sensitivity score (Vero E6 [2])	drug sensitivity score (Caco-2 [3])	drug sensitivity score (Calu-3 [4])	drug sensitivity score (HepG2 [5])	cell viability (U2OS [6]; 1 nM)	cell viability (U2OS [6]; 10 nM)	cell viability (U2OS [6]; 100 nM)	cell viability (U2OS [6]; 1000 nM)	cell viability (U2OS [6]; 10000 nM)	cell viability (Vero E6 [7]; 1 nM)	cell viability (Vero E6 [7]; 10 nM)	cell viability (Vero E6 [7]; 100 nM)	cell viability (Vero E6 [7]; 1000 nM)	cell viability (Vero E6 [7]; 10000 nM)	cell viability (Caco-2 [8]; 1 nM)	cell viability (Caco-2 [8]; 10 nM)	cell viability (Caco-2 [8]; 100 nM)	cell viability (Caco-2 [8]; 1000 nM)	cell viability (Caco-2 [8]; 10000 nM)	cell viability (Calu-3 [9]; 1 nM)	cell viability (Calu-3 [9]; 10 nM)	cell viability (Calu-3 [9]; 100 nM)	cell viability (Calu-3 [9]; 1000 nM)	cell viability (Calu-3 [9]; 10000 nM)	cell viability (HepG2 [10]; 1 nM)	cell viability (HepG2 [10]; 10 nM)	cell viability (HepG2 [10]; 100 nM)	cell viability (HepG2 [10]; 1000 nM)	cell viability (HepG2 [10]; 10000 nM)	relative viability EC50 (U2OS [11])	relative viability EC50 (Vero E6 [12])	relative viability EC50 (Caco-2 [13])	relative viability EC50 (Calu-3 [14])	relative viability EC50 (HepG2 [15])
CC[C@@]1(O)C(=O)OCc2c1cc1n(c2=O)Cc2cc3cc(O)ccc3nc2-1 [10-hydroxycamptothecin]	12.7	9.1	12.2	20.5	31.8	102%	106%	90.1%	41.6%	1.7%	97.4%	97.5%	92.9%	59.9%	22.5%	94.2%	107%	89.3%	43%	13.2%	95.8%	97.5%	48.7%	31.4%	20.2%	102%	47.8%	31.2%	5.3%	2.1%	0.715 µM	0.9 µM	0.573 µM	0.0695 µM	0.0158 µM
CC(C)(C)c1cc(C=C(C#N)C#N)cc(Br)c1O [AG-1024]	0	0	1.7	0	0.3	105%	106%	102%	96.4%	99.2%	102%	96.8%	98.1%	94.8%	92.4%	98.8%	96.8%	101%	93.3%	77.4%	104%	92.4%	92%	87.8%	100%	102%	110%	109%	119%	79.8%	> 10 µM	> 10 µM	> 10 µM	> 10 µM	> 10 µM
Cc1ccccc1C(C(=O)NC1CCCCC1)N(C(=O)Cn1ccnc1C)c1cccc(F)c1 (stereo not given) [AGI-5198]	0	0	0	0.8	0	96.6%	103%	102%	106%	93.2%	100%	100%	98.9%	99.2%	101%	98.4%	97.5%	87.9%	103%	90.6%	93.6%	95.7%	85.4%	90.3%	87.4%	103%	99.3%	112%	88.6%	103%	> 10 µM	> 10 µM	> 10 µM	> 10 µM	> 10 µM
N#C/C(=C\c1cccn1S(=O)(=O)c1cccc([N+](=O)[O-])c1)S(=O)(=O)c1ccc(F)cc1 [AMZ30]	0	0	0.4	0	0	102%	101%	96.8%	96.2%	94.1%	98.6%	97.6%	96.4%	94.9%	93.3%	104%	99%	95.3%	96.3%	84.8%	90.5%	98%	104%	105%	108%	95.8%	105%	119%	93.7%	103%	> 10 µM	> 10 µM	> 10 µM	> 10 µM	> 10 µM
CCNC(=O)NS(=O)(=O)c1sc(CC(C)C)cc1-c1ccc(Cn2c(-c3ccccc3)nc(OC)c2C=O)cc1 [AVE-0991]	0	0	0	0	0	104%	99.7%	103%	100%	102%	99.9%	98.3%	97.7%	93.3%	96%	108%	97.5%	99.1%	90.1%	97.7%	107%	104%	110%	93.8%	97.9%	102%	99.6%	101%	108%	102%	> 10 µM	> 10 µM	> 10 µM	> 10 µM	> 10 µM
C/C(=C\C(=O)Nc1ccccc1C(=O)O)c1ccc2ccccc2c1 [BIBR-1532]	0	0	0	0	0	93.8%	96.9%	95.5%	93.3%	103%	105%	99.9%	97.5%	103%	105%	94.1%	100%	103%	98%	95.8%	101%	102%	98.2%	108%	98%	97.6%	98%	94.9%	110%	118%	> 10 µM	> 10 µM	> 10 µM	> 10 µM	> 10 µM
c1ccc2cc(C3=NCCN3)ncc2c1 [BU226]	0	0	0	0	0	105%	108%	99.7%	106%	100%	96.6%	97.1%	96.5%	94.6%	98.7%	103%	108%	94.3%	97.7%	101%	112%	97.5%	97%	97.4%	91.8%	102%	95.7%	86.1%	103%	104%	> 10 µM	> 10 µM	> 10 µM	> 10 µM	> 10 µM
